Assay results published in ChEMBL document CHEMBL6109055, “Naphtho[1,2-b][1,4]diazepinedione-Based P2X4 Receptor Antagonists from Structure-Activity Relationship Studies toward PET Tracer Development” (J Med Chem, 2025).

Legend:
P2X purinoceptor 4 = P2X purinoceptor 4 (Homo sapiens, UniProt Q99571); assay: Antagonist activity at human P2X4 receptor overexpressed in human 1321N1 cells assessed as inhibition of ATP-induced calcium responses by Fluo-4 AM/Ca2+ Flux assay; type: cell-based
[1] = Stability in mouse serum measured up to 90 mins at 3.1 to 8.7 MBq by analytical radio-HPLC analysis; type: ADME, cell-free; settings: dose 3.1-8.7 MBq, read-out: Stability
[2] = In vivo biodistribution in adult female C57Bl/6 mouse assessed as accumulation in liver at about 5 MBq, iv measured after 15 mins by PET imaging analysis; type: ADME, organism-based; settings: 0.25 h
[3] = In vivo biodistribution in adult female C57Bl/6 mouse assessed as accumulation in gall bladder at about 5 MBq, iv measured after 30 mins by PET imaging analysis; type: ADME, organism-based; settings: 0.5 h
[4] = Stability in human serum measured up to 90 mins at 3.1 to 8.7 MBq by analytical radio-HPLC analysis; type: ADME, cell-free; settings: dose 3.1-8.7 MBq, read-out: Stability
[5] = In vivo biodistribution in adult female C57Bl/6 mouse assessed as accumulation in bladder at 5 MBq, iv measured after 2 to 85 mins by PET imaging analysis; type: ADME, organism-based, Urinary bladder; settings: time 2-85 min
[6] = Octanol/PBS partition coefficient, log D of the radiolabeled compound at 420 to 460 kBq at pH 7.4 by gamma-counting analysis; type: physicochemical; settings: dose 420-460 kBq
[7] = Metabolic stability in C57BL/6 mouse liver microsomes assessed as remaining parent compound by UPLC-UV/MS analysis; type: ADME, Microsome
[8] = Lipophilicity, logD of compound in n-octanol and buffer at pH 7.4 by LC-MS analysis; type: physicochemical
[9] = Plasma protein binding in unknown origin; type: ADME, cell-free; settings: read-out: PPB (converted)
[10] = In vivo biodistribution in adult female C57Bl/6 mouse assessed as accumulation in bladder at 5 MBq, iv measured after 15 to 85 mins by PET imaging analysis; type: ADME, organism-based, Urinary bladder; settings: time 15-85 min
[11] = In vivo biodistribution in adult female C57Bl/6 mouse assessed as accumulation in intestine at about 5 MBq, iv measured after 2 to 85 mins by PET imaging analysis; type: ADME, organism-based; settings: time 2-85 min

P2X purinoceptor 4, sequence (Q99571 whole entry): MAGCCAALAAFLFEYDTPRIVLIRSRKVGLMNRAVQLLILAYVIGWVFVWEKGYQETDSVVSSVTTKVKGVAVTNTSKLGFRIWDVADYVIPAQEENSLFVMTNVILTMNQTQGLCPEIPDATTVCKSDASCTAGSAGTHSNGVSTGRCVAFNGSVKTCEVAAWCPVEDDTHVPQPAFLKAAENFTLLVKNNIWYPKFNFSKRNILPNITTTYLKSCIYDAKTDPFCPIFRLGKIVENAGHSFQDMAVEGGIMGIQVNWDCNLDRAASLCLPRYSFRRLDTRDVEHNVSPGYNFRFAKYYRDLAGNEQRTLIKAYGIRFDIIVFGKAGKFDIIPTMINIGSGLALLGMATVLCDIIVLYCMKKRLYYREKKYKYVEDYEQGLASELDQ

Row | SMILES | IC50 (P2X purinoceptor 4; read-out: IC50) [nM] | also measured
1 | O=C1CC(=O)N(c2ccc(NS(=O)(=O)c3ccc(C(F)(F)F)cc3Cl)cc2)c2ccc3ccccc3c2N1 | 3390 | 
2 | O=C1CC(=O)N(c2ccc(NS(=O)(=O)c3cc(C(F)(F)F)ccc3Cl)cc2)c2ccc3ccccc3c2N1 | 2730 | 
3 | O=C1CC(=O)N(c2ccc(NS(=O)(=O)c3ccc(Br)cc3Cl)cc2)c2ccc3ccccc3c2N1 | 1590 | 
4 | O=C1CC(=O)N(c2ccc(NS(=O)(=O)c3cccc4ccccc34)cc2)c2ccc3ccccc3c2N1 | 1650 | 
5 | Cc1cc([18F])ccc1S(=O)(=O)Nc1ccc(N2C(=O)CC(=O)Nc3c2ccc2ccccc32)cc1 |  | remaining at […] [1]: > 99%; Drug uptake [2]: Active; Drug uptake [3]: Active; remaining at […] [4]: > 99%; Drug uptake [5]: Not_active; logD [6]: 3.5
6 | O=C1CC(=O)N(c2ccc(NS(=O)(=O)C3CCCCC3)cc2)c2ccc3ccccc3c2N1 | 2580 | 
7 | Cc1ccc(F)cc1S(=O)(=O)Nc1ccc(N2C(=O)CC(=O)Nc3c2ccc2ccccc32)cc1 | 179 | 
8 | O=C1CC(=O)N(c2ccc(NC(=O)c3ccccc3F)cc2)c2ccc3ccccc3c2N1 | 2300 | 
9 | COc1ccc(S(=O)(=O)Nc2ccc(N3C(=O)CC(=O)Nc4c3ccc3ccccc43)cc2)cc1 | 3950 | 
10 | Nc1ccc(N2C(=O)CC(=O)Nc3c2ccc2ccccc32)cc1 | 990 | 
11 | O=C1CC(=O)N(c2ccc(NS(=O)(=O)Cc3ccc(Br)cc3Cl)cc2)c2ccc3ccccc3c2N1 | 531 | 
12 | Cc1cccc(Cl)c1S(=O)(=O)Nc1ccc(N2C(=O)CC(=O)Nc3c2ccc2ccccc32)cc1 | 385 | 
13 | CN(c1ccc(N2C(=O)CC(=O)Nc3c2ccc2ccccc32)cc1)S(=O)(=O)c1ccccc1 | 683 | 
14 | O=C1CC(=O)N(c2ccc(NS(=O)(=O)Cc3ccccc3Cl)cn2)c2ccc3ccccc3c2N1 | 17 | 
15 | O=C1CC(=O)N(c2ccc(NS(=O)(=O)c3cccnc3[N+](=O)[O-])cc2)c2ccc3ccccc3c2N1 | 1000 | 
16 | O=C1CC(=O)N(c2ccc(NS(=O)(=O)Cc3c(F)cccc3Cl)cc2)c2ccc3ccccc3c2N1 | 108 | 
17 | COc1ccccc1S(=O)(=O)Nc1ccc(N2C(=O)CC(=O)Nc3c2ccc2ccccc32)cc1 | 90 | 

Row | SMILES | IC50 (P2X purinoceptor 4; read-out: IC50) [nM] | also measured
18 | CNCC[C@H](Oc1cccc2ccccc12)c1cccs1 [DULOXETINE] | 5880 | 
19 | O=C1CC(=O)N(c2ccc(NC(=O)c3ccccc3)cc2)c2ccc3ccccc3c2N1 | 585 | 
20 | Cc1cc(Br)ccc1S(=O)(=O)Nc1ccc(N2C(=O)CC(=O)Nc3c2ccc2ccccc32)cc1 | 263 | 
21 | N#Cc1ccc(S(=O)(=O)Nc2ccc(N3C(=O)CC(=O)Nc4c3ccc3ccccc43)cc2)c(Cl)c1 | 14100 | 
22 | COc1ccc(Br)cc1S(=O)(=O)Nc1ccc(N2C(=O)CC(=O)Nc3c2ccc2ccccc32)cc1 | 2330 | 
23 | Cc1cc(B(O)O)ccc1S(=O)(=O)Nc1ccc(N2C(=O)CC(=O)Nc3c2ccc2ccccc32)cc1 | 48 | 
24 | O=C1CC(=O)N(c2ccc(NS(=O)(=O)c3cccnc3F)cc2)c2ccc3ccccc3c2N1 | 1120 | Stability [7]: 95%; logD [8]: 1.78; IC50 (P2X purinoceptor 4; read-out: pIC50 (converted)): 1100 nM; fraction unbound [9]: 0.06
25 | Cc1cc(F)ccc1CS(=O)(=O)Nc1ccc(N2C(=O)CC(=O)Nc3c2ccc2ccccc32)cn1 | 14 | Stability [7]: 67%; logD [8]: 2.59; fraction unbound [9]: 0.03
26 | O=C1CC(=O)N(c2ccc(NS(=O)(=O)c3ccc(F)cc3Cl)cc2)c2ccc3ccccc3c2N1 | 128 | Stability [7]: 93%; logD [8]: 3.55; fraction unbound [9]: < 0.02
27 | Cc1cc([18F])ccc1CS(=O)(=O)Nc1ccc(N2C(=O)CC(=O)Nc3c2ccc2ccccc32)cc1 |  | remaining at […] [1]: > 99%; remaining at […] [4]: > 99%; Drug uptake [10]: Active; Drug uptake [11]: Active; logD [6]: 3.43
28 | O=C1CC(=O)N(c2ccc(NS(=O)(=O)c3ccccc3Cl)cc2)c2ccc3ccccc3c2N1 | 445 | 
29 | O=C1CC(=O)N(c2ccc(NS(=O)(=O)Cc3ccc(F)cc3)cc2)c2ccc3ccccc3c2N1 | 88 | 
30 | O=C1CC(=O)N(c2ccc(NS(=O)(=O)c3ccc(F)cc3Br)cc2)c2ccc3ccccc3c2N1 | 64 | 
31 | Cc1cc(B(O)O)ccc1CS(=O)(=O)Nc1ccc(N2C(=O)CC(=O)Nc3c2ccc2ccccc32)cc1 | 372 | 
32 | O=C1CC(=O)N(c2ccc(NS(=O)(=O)Cc3ccc(B(O)O)cc3Cl)cc2)c2ccc3ccccc3c2N1 | 295 | 
33 | O=C1CC(=O)N(c2ccc(NS(=O)(=O)c3c(Cl)cccc3Cl)cc2)c2ccc3ccccc3c2N1 | 650 | 
34 | O=C1CC(=O)N(c2ccc(NS(=O)(=O)Cc3c(Cl)cccc3Cl)cc2)c2ccc3ccccc3c2N1 | 74 | 
